Experiments:
Assay type in all cases: cell-based
[1] = test system: HCV genotype 1a replicon, NS5A K24E Q30R; experiment: Transient replication assay, GT1a NS5A K24E Q30R; conditions: Hepatitis C virus
[2] = test system: GT2a-JFH replicon; experiment: Stable replicon assay, comparison to daclatasvir, GT2a-JFH; conditions: Hepatitis C virus
Excerpt: The plasmid pSG-hRlucNeo-JFH1 was generated from pSG-Neo-JFH1 (Kato et al. 2003, Gastroentrology 125:1808-1817). A fragment containing the JFH-1 5′ NTR-hRluc-Neo gene and two unique restriction sites (AgeI and PmeI) was synthesized (Integrated DNA Technologies, Coralville, Iowa). The resulting plasmid was digested with AgeI and PmeI and the excised fragment (5′NTR-hRluc-Neo) was ligated into pSG-Neo-JFH1 digested with the same enzymes to generate pSG-hRlucNeo-JFH1. To allow expression of heterologous NS5A sequences, an NS5A shuttle vector was generated from pSG-Neo-JFH1, in which the entire coding sequence of NS5A plus the first eight codons of NS5B were replaced with an AfeI restriction site. This was done by Infusion cloning (Clontech, Mountain View, Calif.) from two PCR products that were generated using pSG-Neo-JFH1 as a template and the following primer pairs: […]
Stable HCV replicon cell lines were grown in complete media (Dulbecco's modified Eagle medium [DMEM], 2 mM L-glutamine, 0.1 mM essential amino acids, 1 mM sodium pyruvate, 10% fetal bovine serum) with the addition 500 μg/ml […] (G418). […] For stable and transient replicon assays, luciferase activity of compound-treated cells was measured relative to DMSO-treated cells after 72 h incubation using RENILLA-GLO™ Luciferase Assay (Promega). […]

[3] = test system: HCV genotype 1a replicon, NS5A Q30H; experiment: Transient replication assay, GT1a NS5A Q30H; conditions: Hepatitis C virus
[4] = test system: HCV genotype 1a replicon, NS5A Y93N; experiment: Transient replication assay, GT1a NS5A Y93N; conditions: Hepatitis C virus
[5] = test system: HCV genotype 1a replicon, NS5A L31V; experiment: Transient replication assay, GT1a NS5A L31V; conditions: Hepatitis C virus
[6] = test system: HCV genotype 1a replicon, NS5A Y93C; experiment: Transient replication assay, GT1a NS5A Y93C; conditions: Hepatitis C virus
[7] = test system: GT2a-6a-EUKH2 replicon; experiment: Stable replicon assay, comparison to daclatasvir, GT2a-6a-EUKH2; conditions: Hepatitis C virus
Excerpt: The plasmid pSG-hRlucNeo-JFH1 was generated from pSG-Neo-JFH1 (Kato et al. 2003, Gastroentrology 125:1808-1817). A fragment containing the JFH-1 5′ NTR-hRluc-Neo gene and two unique restriction sites (AgeI and PmeI) was synthesized (Integrated DNA Technologies, Coralville, Iowa). The resulting plasmid was digested with AgeI and PmeI and the excised fragment (5′NTR-hRluc-Neo) was ligated into pSG-Neo-JFH1 digested with the same enzymes to generate pSG-hRlucNeo-JFH1. To allow expression of heterologous NS5A sequences, an NS5A shuttle vector was generated from pSG-Neo-JFH1, in which the entire coding sequence of NS5A plus the first eight codons of NS5B were replaced with an AfeI restriction site. This was done by Infusion cloning (Clontech, Mountain View, Calif.) from two PCR products that were generated using pSG-Neo-JFH1 as a template and the following primer pairs:
To express GT6a NS5A chimeric sequences a JFH1-based N-terminal NS5A (NS5A residues 2-107) shuttle vector was constructed by Infusion cloning from two PCR products that were generated using pSG-Neo-JFH1 as a template and the following primers: […]
Purified PCR products were inserted into an NsiI/SnaBI digested pSG-Neo-JFH1 vector by Infusion cloning following the manufacturer's instructions to generate pSG-Neo-JFH1-Nterm_5Ashuttle. […]

[8] = test system: GT1a-H77 replicon; experiment: Stable replicon assay, comparison to daclatasvir, GT1a-H77; conditions: Hepatitis C virus; Replicon GT1a-H77, NS5A genotype 1a
Experimental: Stable HCV replicon cell lines were grown in complete media (Dulbecco's modified Eagle medium [DMEM], 2 mM L-glutamine, 0.1 mM essential amino acids, 1 mM sodium pyruvate, 10% fetal bovine serum) with the addition 500 μg/ml […] (G418). Huh7-lunet cells were maintained in the same medium without the addition of G418. Cells were routinely passaged at a dilution of 1:5 two times per week. For stable replicon assays (GT1a-H77, GT1b-Con1, GT2a-JFH, GT2a-J6, GT2a-2b-MD2b, GT2a-2b-J8, GT2a-3a-S52, GT3a-552, GT4a-ED43, GT2a-5a-SA13, GT2a-6a-EUKH2, GT2a-6a-HK6a, and GT2a-7a-QC69), an 8-point 3-fold or half-log dilution series of compound was transferred into three replica 96-well plates containing 1×10^4 cells per well in phenol red-free complete media without G418. For the transient replication assay, Huh7-lunet cells in ice-cold phosphate buffered saline (PBS) were electroporated (Bio-Rad Gene pulser: 950 uF, 270V) with 10 μg purified in vitro transcribed HCV replicon RNA, followed by resuspension in phenol red-free complete media without G418 and plating (1×10^4 cells in 200 μL media/well) into three replica 96-well plates prior to compound addition (1 μl compound per well). For stable and transient replicon assays, luciferase activity of compound-treated cells was measured relative to DMSO-treated cells after 72 h incubation using RENILLA-GLO™ Luciferase Assay (Promega). […]

Compound	EC50 [1] [nM]	EC50 [2] [nM]	EC50 [3] [nM]	EC50 [4] [nM]	EC50 [5] [nM]	EC50 [6] [nM]	EC50 [7] [nM]	EC50 [8] [nM]
COC(=O)N[C@H](C(=O)N1CCC[C@H]1c1nc(-c2ccc(-c3ccc(-c4c[nH]c([C@@H]5CCCN5C(=O)[C@@H](NC(=O)OC)C(C)C)n4)cc3)cc2)c[nH]1)C(C)C [Daclatasvir, reference compound]	3.5	0.008	0.8	119	4.5	3.2	0.143	0.06
COC(=O)N[C@H](C(=O)N1C[C@]2(CCCOC2)C[C@H]1c1ncc(-c2ccc(-c3ccc4c(ccc5nc([C@@H]6C[C@@H]7CCC[C@@H]7N6C(=O)[C@@H](NC(=O)OC)C(C)C)[nH]c54)c3)cc2)[nH]1)C(C)C [Compound 16]	1.8	0.004	0.006	19	0.15	0.22	0.014	0.007

Source: US10407445B2, “Hepatitis C virus inhibitors” (ENANTA PHARMACEUTICALS, INC., priority 2013, dated 2019)
